# From patent US10016383B2, “Inhibitors of metallo-β-lactamase-enzymes” (McMaster University, priority 2013, dated 2018)
# Legend:
# [1] = system: panel of 16 clinical CRE isolates; experiment: FIC index determination; assay type: cell-based, Enterobacteriaceae; settings: meropenem and AM-A combinations; ≤0.5 defined as synergistic
# Procedure: FIC values were determined by standard methods^27 setting up checkerboards with 8 concentrations of each meropenem and AM-A in serial ½ dilutions. Experiments were done in duplicate and the mean used for calculation. The MIC for each compound was the lowest concentration of compound showing no growth. The FIC for each compound was calculated as the concentration of the compound in the presence of co-compound for a well showing no growth, divided by the MIC for that compound. The FIC index is the sum of the two FICs.
# Pseudomonas spp. = experiment: Clinical isolate screening with meropenem; assay type: cell-based, Pseudomonas aeruginosa
# Procedure: Various concentrations of AM-A were chosen in combination with 2 mg/L of meropenem which is the EUCAST breakpoint for resistance^28. Synergistic properties of the two compounds were examined in a micro-titre tray using BHI as the growth medium (Oxford Science Park, England) and an inoculum of 0.5 MacFarland. All plates contained the control strains Escherichia coli ATCC 25922 and Pseudomonas aeruginosa ATCC 27853. Overall, 226 non-clonal clinical isolates (Enterobacteriaceae, P. aeruginosa and Acinetobacter spp.) were challenged containing one of the following MBLs: SPM-1 (n=17), AIM-1 (n=8), NDM-1 (n=67), VIM-type (n=114) or IMP-type (n=20). […] Plates were incubated at 37° C. and read after 18 hrs.
# VIM-2 [2] = target: T1, VIM-2 (Escherichia coli, UniProt Q5U7L7); experiment: Inactivation kinetics; assay type: biochemical
# T1 construct: All β-lactamase overexpression constructs were generated without the leader peptide in a pET-28b plasmid containing a N-terminal His Tag; His tag (N); made in house; host or cells: E. coli BL21(DE3)
# Procedure: NDM-1 (50 nM) was added to 20 μM nitrocefin containing AM-A in serial ½ dilutions from 8 μM. The assay was performed in 50 mM HEPES pH 7.5, 200 μL final volume. The assay was read in 96-well microplate format at 490 nm using a Spectramax reader (Molecular Devices) for 10 minutes at 37° C. VIM-2 (10 nM) was added to 20 μM nitrocefin containing AM-A in serial ½ dilutions from 16 μM. The assay was performed in 50 mM HEPES pH 7.5, 200 μL final volume. The assay was read in 96-well microplate format at 490 nm using a Spectramax reader (Molecular Devices) for 10 minutes at 37° C. as reported previously. For all assays experiments the offset between reaction initiation and the first read was ˜6s.
# Rate constants characterizing the inactivation of enzyme were calculated based on the dependence of the pseudo-first order rate constant, ki, upon AM-A concentration according to the following model:
# [formula] where E•Zn, A, E•Zn•A, and Zn•A are the active metalloenzyme, AM-A, the ternary metalloenzyme-AM-A complex, and AM-A-metal complex, respectively. Ki represents the dissociation constant of the ternary complex and k+2 is the rate constant for dissociation of ternary complex into inactivated enzyme (Einact) and AM-A-Zn complex. […]
# [formula] […] The individual values of Ki and k+2 were determined by fitting the value of ki to equation 2 as described previously^25: […]
# VIM-2 [3] = target: T1, VIM-2; experiment: Incubation of AM-A with metalloenzymes in Zn2+-depleted buffer; assay type: biochemical; settings: extended incubation, AM-A 0.5 mM
# Procedure: Enzyme (500 nM) was incubated with AM-A (500 μM) for 10 minutes. 20 μL of the above was diluted with 180 μL nitrocefin or FAPGG substrate for the following final concentrations: Enzyme (50 nM), FAPGG (50 μM)/nitrocefin (20 μM), AM-A (50 μM). Buffer (50 mM HEPES pH 7.5, 300 mM NaCl) was stirred overnight with 2 g/100 mL Chelex-100 (Biorad; Richmond, Calif.). Assays were read in 96-well microplate format at 490 nm using a Spectramax reader (Molecular Devices) at 37° C.
# NDM-1 = NDM-1 (Klebsiella pneumoniae, UniProt C7C422); experiment: IC50 enzyme inhibition assay, nitrocefin reporter substrate; assay type: biochemical; set-up: All β-lactamase overexpression constructs were generated without the leader peptide in a pET-28b plasmid containing a N-terminal His Tag; His tag (N, cleaved yes); SUMO (implied by the use of SUMO protease) (N, cleaved yes); made in house; host or cells: E. coli BL21(DE3)
# Procedure: Enzyme (NDM-1, 5 nM; VIM-2, 500 pM; CTX-M-15, 500 pM; KPC-2, 5 nM; OXA-48, 1 nM; TEM-1, 100 pM; ACE, 50 nM) was mixed with 30 μM nitrocefin (100 μM nitrocefin for TEM-1; 250 µM furanacryloyl-L-phenylalanylglycylglycine [FAPGG] for ACE^24) after a 5-10 minute preincubation with AM-A. Metallo-enzymes were supplemented with 10 μM ZnSO4. Assays were read in 96-well microplate format at 490 nm using a Spectramax reader (Molecular Devices) at 30-37° C.
# E. coli strain BW25113 was modified by deletion of the bamB and tolC genes so as to increase permeability to and reduce efflux of small molecules. This strain was then further modified by the single-copy chromosomal insertion of the blaNDM-1 gene under control of the pLac promoter. Microbial natural product extracts were screened against this strain in the presence of sublethal ¼ MIC meropenem. AM-A was purified from a hit extract and its structure elucidated by NMR, mass spectrometry and polarimetry. IC50 values for AM-A were determined using nitrocefin (for MBLs and Ser BLs) and furanacryloyl-L-phenylalanylglycylglycine (for ACE)^21 as reporter substrates against the following purified enzymes: MBLs IMP-7, VIM-2, and NDM-1; SBLs CTX-M-15, KPC-2, OXA-48, and TEM-1; as well as ACE from rabbit lung. […] FIC values were determined using standard methods^27. […]
# Chain of NDM-1 (C7C422 29-270 limits assumed): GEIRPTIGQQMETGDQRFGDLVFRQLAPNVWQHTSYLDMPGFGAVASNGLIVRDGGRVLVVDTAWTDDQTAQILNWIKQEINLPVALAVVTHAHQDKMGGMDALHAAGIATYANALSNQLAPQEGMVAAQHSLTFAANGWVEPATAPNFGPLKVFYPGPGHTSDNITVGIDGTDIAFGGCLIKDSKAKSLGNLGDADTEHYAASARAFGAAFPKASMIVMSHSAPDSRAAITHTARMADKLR
structure (smiles),measurement,setting,value
"N[C@H](CN[C@H](CN[C@@H](CC(=O)O)C(=O)O)C(=O)O)C(=O)O [AM-A, aspergillomarasmine A]",Fractional inhibitory concentration (FIC) index,[1],< 0.1
same,activity in Pseudomonas spp. (potentiation of meropenem),Pseudomonas spp.,active
same,Ki,VIM-2 [2],7 nM
same,k+2 (inactivation rate constant),VIM-2 [2]; time-dependent inactivation,0.0065 s⁻¹
same,inactivation of VIM-2,VIM-2 [3],complete inactivation
same,in vitro inhibition of NDM-1,NDM-1,potent in vitro dose-dependent inhibition
